# According to US5026708A, “Pyrimidine type mevalonolactones” (Nissan Chemical Industries Ltd., priority 1987, dated 1991):
# Structures can show the parent of a compound that is named as a salt. Where two headings read alike, the source gives them in different places.
# Tests used:
# [1] = tested on: cholesterol biosynthesis in Hep G2 cells; test: Test B: Inhibition of cholesterol biosynthesis in culture cells; type: cell-based; conditions: acetate added at 0 hr; for Relative activities by Test B-1: based on the activities of CS-514 by Test B-1 being evaluated to be 1
# Protocol: Hep G2 cells at over 5th passage were seeded to 12 well plates and incubated with Dulbecco's modified Eagle (DME) medium containing 10% of fetal bovine serum (FBS) at 37° C., 5% CO2 until cells were confluent for about 7 days. Cells were exposed to the DME medium containing 5% of lipoprotein deficient serum (LpDS) prepared by ultracentrifugation method for over 24 hours. Medium was changed to 0.5 ml of fresh 5% LpDS containing DME before assay and 10 μl of test compound solution dissolved in water or DMSO were added. 0.2 μCi of [2-^14 C]sodium acetate (20 μl ) was added at 0 hr(B-1) or 4 hrs(B-2) after addition of compounds. After 4 hrs further incubation with [2-^14 C]sodium acetate, medium was removed and cells were washed with phosphate buffered saline(PBS) chilled at 4° C. Cells were scraped with rubber policeman and collected to tubes with PBS and digested with 0.2 ml of 0.5 N KOH at 37° C. Aliquot of digestion was used for protein analysis and remaining was saponified with 1 ml of 15% EtOH-KOH at 75° C. for 1 hour. Nonsaponifiable lipids were extracted with petroleum ether and ^14 C radioactivity was counted. Counts were revised by cell protein and indicated with DPM/mg protein. Inhibitory activity of compounds was indicated with IC50.
# (§1) With respect to the compounds of the present invention, the inhibitory activities against the cholesterol biosynthesis in which HMG-CoA reductase serves as a rate limiting enzyme, were measured by the above Test A and B. The results are shown in Tables 2, 2-2 and 3. Further, the results of the measurements by Test C are also presented.
# [2] = tested on: cholesterol biosynthesis in which HMG-CoA reductase serves as a rate limiting enzyme (rat liver microsome and sup fraction); test: Test A: Inhibition of cholesterol biosynthesis from acetate in vitro; type: biochemical, male Wistar rat; conditions: for Relative activities by Test A: based on the activities of CS-514 by Test A being evaluated to be 1; for IC50: Test A, rat liver microsome and sup fraction, [2-14C]sodium acetate, 2 hours at 37° C., read-out: IC50 (molar concentration), inhibitory activities by Test A
# Protocol: Enzyme solution was prepared from liver of male Wistar rat billialy connulated and discharged bile for over 24 hours. Liver was cut out at mid-dark and microsome and supernatant fraction which was precipitable with 40-80% of saturation of ammonium sulfate (sup fraction) were prepared from liver homogenate according to the modified merhod of Knauss et. al.; Kuroda, M., et. al., Biochim. Biophys. Acta, 489, 119 (1977). For assay of cholesterol biosynthesis, microsome (0.1 mg protein) and sup fraction (1.0 mg protein) were incubated for 2 hours at 37° C. in 200 μl of the reaction mixture containing ATP; 1 mM, Glutathione; 6 mM, Glucose-1-phosphate; 10 mM, NAD; 0.25 mM, NADP; 0.25 mM, CoA; 0.04 mM and 0.2 mM [2-^14 C]sodium acetate (0.2 μCi) with 4 μl of test compound solution dissolved in water or dimethyl sulfoxide. To stop reaction and saponify, 1 ml of 15% EtOH-KOH was added to the reactions and heated at 75° C. for 1 hour. Nonsaponifiable lipids were extracted with petroleum ether and incorporated ^14 C radioactivity was counted. Inhibitory activity of compounds was indicated with IC50.
# as §1
# Test D: Acute toxicity = test: Test D: Acute toxicity; parameters: species or system ICR male mice; conditions: mouse, in vivo, oral, 0.5% CMC suspension, read-out: mortality after seven days
# Protocol: A 0.5% CMC suspension of a test compound was orally administered to ICR male mice (group of from one to three mice). The acute toxicity was determined based on the mortality after seven days. With compound I-5-8 and I-5-11 of the present invention, the mortality was 0% even when they were orally administered in an amount of 824 mg/kg and 982 mg/kg, respectively.
# cholesterol biosynthesis = test: Test C: Inhibition of cholesterol biosynthesis in vivo; parameters: species or system Male Sprague-Dawley rats; conditions: rats
# Protocol: Male Sprague-Dawley rats weighing about 150 g were fed normal Purina chow diet and water ad libitum, and exposed to 12 hours light/12 hours dark lighting pattern (2:00 PM-2:00 AM dark) prior to use for in vivo inhibition test of cholesterol biosynthesis. Animals were separated groups consisting of five rats as to be average mean body weight in each groups. […] As control, rats were orally administered only water or vehicle. At 90 minutes after sample administration, rats were injected intraperitoneally with 10 μCi of [2-^14 C]sodium acetate at volume of 0.2 ml per one. 2 Hours later, blood samples were obtained and serum were separated immediately. Total lipids were extracted according to the method of Folch et al. and saponified with EtOH-KOH. Nonsaponifiable lipids were extracted with petroleum ether and radio activity incorporated into nonsaponifiable lipids was counted.
# Inhibitory activity was indicated as percent decrease of counts in testing groups (DPM/2 ml serum/2 hours) from that in control group.
SMILES,Relative activities by Test B-1 [1],Relative activities by Test A [2],further results
CCOC(=O)CC(O)CC(O)/C=C/c1c(-c2ccc(F)cc2)nc(Cc2ccccc2)nc1C1CC1 (centres unmarked) [Compound I-1-12],41.3,,
CC(C)c1nc(-c2ccccc2)nc(-c2ccc(F)cc2)c1/C=C/C(O)CC(O)CC(=O)O (centres unmarked) [Compound I-5-8],36.1,4.6,mortality at 168 h (Test D: Acute toxicity; 824 mg/kg): 0%
Cc1nc(-c2ccccc2)nc(-c2ccccc2)c1/C=C/C(O)CC(O)CC(=O)O (centres unmarked) [Compound I-5-3],,,IC50 [2]: 100 nM
Cc1ccc(-c2nc(-c3ccc(F)cc3)c(/C=C/C(O)CC(O)CC(=O)O)c(C3CC3)n2)cc1 (centres unmarked) [Compound I-5-15],58.5,14.5,percent decrease of counts relative to control group (cholesterol biosynthesis; oral administration of 0.5 mg/kg): 35%
CCOC(=O)CC(O)CC(O)/C=C/c1c(-c2ccc(F)cc2)nc(-c2ccc(OC)cc2)nc1C1CC1 (centres unmarked) [Compound I-1-14],72.5,,
COc1ccc(-c2nc(-c3ccc(F)cc3)c(/C=C/C(O)CC(O)CC(=O)O)c(C3CC3)n2)cc1 (centres unmarked) [Compound I-5-14],,16.1,
O=C(O)CC(O)CC(O)/C=C/c1c(-c2ccc(F)cc2)nc(Cc2ccccc2)nc1C1CC1 (centres unmarked) [Compound I-5-12],46.3,14.8,
"CC[C@H](C)C(=O)O[C@H]1C[C@@H](C)C=C2C=C[C@H](C)[C@H](CC[C@@H]3C[C@@H](O)CC(=O)O3)[C@H]21 [Mevinolin, reference compound]",,,IC50 [2]: 14 nM
O=C(O)CC(O)CC(O)/C=C/c1c(-c2ccc(F)cc2)nc(-c2cccc(Cl)c2)nc1C1CC1 (centres unmarked) [Compound I-5-13],,15.9,
O=C(O)CC(O)CC(O)/C=C/c1c(-c2ccc(F)cc2)nc(-c2ccc(-c3ccccc3)cc2)nc1C1CC1 (centres unmarked) [Compound I-5-16],,1.9,
O=C(O)CC(O)CC(O)/C=C/c1c(-c2ccc(F)cc2)nc(-c2cccc(C(F)(F)F)c2)nc1C1CC1 (centres unmarked) [Compound I-5-17],,12.2,
Cc1nc(C)c(/C=C/C(O)CC(O)CC(=O)O)c(-c2ccccc2)n1 (centres unmarked) [Compound I-5-2],,,IC50 [2]: 5000 nM
CCOC(=O)CC(O)CC(O)/C=C/c1c(-c2ccc(F)cc2)nc(-c2cccc(Cl)c2)nc1C1CC1 (centres unmarked) [Compound I-1-13],41.6,,
"CC[C@H](C)C(=O)O[C@H]1C[C@H](O)C=C2C=C[C@H](C)[C@H](CC[C@@H](O)C[C@@H](O)CC(=O)O)[C@H]21 [CS-514, reference compound]",,,"IC50 [2]: 12.5 nM; IC50 ([1]; Homo sapiens, HepG2, Test B-1, Hep G2 cells, read-out: IC50 (molar concentration), Test B-1): 1400 nM; percent decrease of counts relative to control group (cholesterol biosynthesis; oral administration of 10 mg/kg): 55%"
"Cc1nc(-c2ccccc2)nc(-c2ccc(F)cc2)c1/C=C/C(O)CC(O)CC(=O)O (centres unmarked) [Compound I-5-1, Sodium salt of (E)-3,5-dihydroxy-7-[4'-(4''-fluorophenyl)-6'methyl-2 2'-phenylpyrimidin-5'-yl]hept-6-enoic acid]",,,IC50 [2]: 18 nM
"CC(C)c1nc(-c2ccccc2)nc(-c2ccc(F)cc2)c1/C=C/[C@@H]1C[C@@H](O)CC(=O)O1 (relative stereo) [Compound I-3-8, (E)-6-[4'-(4''-fluorophenyl)-6'-(1''-methylethyl)-2'-phenylpyrimidin-5 '-ylethenyl]-4-hydroxy-3,4,5,6-tetrahydro-2H-pyran-2-one]",,5.2,
O=C(O)CC(O)CC(O)/C=C/c1c(-c2ccc(F)cc2)nc(-c2ccccc2)nc1C1CC1 (centres unmarked) [Compound I-5-11],28.4,15.9,mortality at 168 h (Test D: Acute toxicity; 982 mg/kg): 0%
